≈ marks a conversion by molar mass, not a printed value.
Tests used:
Plasmodium falciparum [1] = assay: Antiplasmodial activity after 48 hrs against Plasmodium falciparum FCR3F86 by [3H]hypoxanthine uptake; assay type: functional, organism-based
KB = assay: Cytotoxicity against human KB cells assessed as [3H]hypoxanthine incorporation after 48 hrs; assay type: functional, cell-based
Plasmodium falciparum [2] = assay: Antiplasmodial activity after 48 hrs against Plasmodium falciparum D6 by [3H]hypoxanthine uptake; assay type: functional, organism-based
Plasmodium falciparum [3] = assay: Antiplasmodial activity after 48 hrs against Plasmodium falciparum W2 by [3H]hypoxanthine uptake; assay type: functional, organism-based

| IC50 (Plasmodium falciparum [1]) [µg/mL] | IC50 (Plasmodium falciparum [2]) [µg/mL] | IC50 (Plasmodium falciparum [3]) [µg/mL] | Compound | IC50 (KB) [µg/mL] |
| --- | --- | --- | --- | --- |
| 14.8 (≈ 41 µM) |  |  | C[C@@H]1C[C@@H]2C[C@H](C)[C@H]3CC[C@](C)(NC=O)[C@H]4CC[C@@H]([C@@H]2[C@H]34)[C@]1(C)NC=O |  |
| 0.2 (≈ 0.584 µM) | 0.8 (≈ 2.34 µM) | 0.6 (≈ 1.75 µM) | [C-]#[N+][C@]1(C)[C@H](C)C[C@@H]2C[C@H](C)[C@H]3CC[C@](C)(NC=O)[C@H]4CC[C@H]1[C@@H]2[C@H]34 | > 5 |
| > 90 |  |  | C=C(C)C[C@@H]1C[C@H](C)[C@H]2CC[C@](C)(NC=O)[C@H]3CCC(=C)[C@@H]1[C@H]23 (relative stereo) |  |
| > 100 |  |  | C[C@H]1C[C@H]2CC(C)(C)C=C3CC[C@H]4[C@@H]([C@@H]1CC[C@]4(C)NC=O)[C@@H]32 (relative stereo) |  |
| 63 (≈ 200 µM) |  |  | C=C1CC[C@H]2[C@H]3[C@H](CC[C@]2(C)NC=O)[C@@H](C)C[C@H](C=C(C)C)[C@H]13 (relative stereo) |  |
| 0.0004 (≈ 0.00109 µM) | 0.0002 (≈ 0.000545 µM) | 0.0008 (≈ 0.00218 µM) | O=C1C(O)=C([C@H]2CC[C@H](c3ccc(Cl)cc3)CC2)C(=O)c2ccccc21 [ATOVAQUONE] | > 5 |

— ChEMBL document CHEMBL1152320, “Diterpene formamides from the tropical marine sponge Cymbastela hooperi and their antimalarial activity in vitro” (J Nat Prod, 2009)
